Experimental data published in PubChem BioAssay AID488892 (Sanford-Burnham Center for Chemical Genomics, 2010).
Activity calls are given as the source filed them.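 The calls were made as follows: active = mean IC50 below a set limit; inactive = the rest.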

Molecular target: Alkaline phosphatase, placental type (Homo sapiens) (UniProt P05187)
Test: inhibition of placental alkaline phosphatase – biochemical, uHTS hits, luminescence, selectivity assay for human IAP inhibitor project, dose response (AID 488892)
Conditions: purified PLAP, CDP-Star luminescence, 30 min

With `CN(C)c1ccc2nc3c(=O)[nH]c(=O)nc-3n(CC(O)C(O)C(O)CO)c2c1` (stereo not drawn) the IC50 was 30.3 µM.
`CCOc1cc(/C=C2/C(=O)ON=C2C)cc(Br)c1O` was tested, and the IC50 was 35.1 µM.
`CC[n+]1c(/C=C/c2c[nH]c3ccccc23)ccc2cc(C)ccc21` showed an IC50 of 10.8 µM.
`CC(C)=CCc1c(O)ccc2c1OC(c1ccc(O)c(O)c1)CC2=O` (stereo not drawn) was tested, and the IC50 was 44.8 µM.
Work on `O=C1Nc2ccccc2/C1=N\N=C\c1ccc(O)c(O)c1` yielded an IC50 of 8.64 µM.
Compound `Nc1ccc(-c2c3ccc(=O)cc-3oc3cc(O)ccc23)cc1C(=O)O` has an IC50 of 29.9 µM.
`O=C1C2C3C=CC(C3)C2C(=O)N1c1n[nH]c(-c2cccnc2)n1` (stereo not drawn) was tested, and the IC50 was > 100 µM (inactive).
`CC1=NN(Cc2ccccc2)C(=O)/C1=C\c1ccc(N(C)C)cc1` gave an IC50 of 37.8 µM.
`COc1ccc(C=C2C(=O)c3ccccc3C2=O)cc1O` showed an IC50 of 14.7 µM.
With `C=CCN1C(=O)/C(=C\C=C2\N(C)c3ccccc3C2(C)C)SC1=S` the IC50 was 10.6 µM.
Compound `COc1cc(/C=C(\C#N)C(=O)c2ccc(O)c(O)c2)cc(I)c1O` has an IC50 of 15.5 µM.
`CNc1nnc(-c2cc3ccccc3oc2=O)s1` showed an IC50 of 4.1 µM.
With `CCN1/C(=C\c2ccc3ccccc3[n+]2CC)Sc2cc(C)ccc21` the IC50 was 28.2 µM.
In the case of `CCN(CC)c1ccc(N=Nc2nn(C)c(C)c2[N+](=O)[O-])cc1`, the IC50 is reported as 49 µM.
Compound `Oc1ccc(N=Nc2c(O)ccc3ccccc23)cc1` has an IC50 of 18.4 µM.
`O=c1c2cc(O)c(O)cc2oc2cc(O)c(C3OC(CO)C(O)C(O)C3O)c(O)c12` (stereo not drawn) showed an IC50 of 2.71 µM.
Work on `O=C(/C=C/c1ccccc1O)c1ccco1` yielded an IC50 of 75.4 µM.
`c1ccc(CSCCc2ccncc2)cc1` showed an IC50 of 30.3 µM.
For `CN(C)c1ccc(N=Nc2ccccc2Br)cc1`, the IC50 was 27.9 µM.
`COc1ccc2nc3cc(Cl)ccc3c(Nc3cc(CN4CCCC4)c(O)c(CN4CCCC4)c3)c2n1` was tested, and the IC50 was 11.5 µM.
In the case of `N#C/C(=C\c1ccc(O)c(O)c1)C(=O)c1ccc(O)c(O)c1`, the IC50 is reported as 5.59 µM.
Compound `O=C(NN1C(=O)/C(=C/c2ccc(O)c([N+](=O)[O-])c2)SC1=S)c1ccccc1Cl` has an IC50 of 27.9 µM.
In the case of `C/C(=N/Nc1ccccc1[N+](=O)[O-])c1ccc([N+](=O)[O-])cc1`, the IC50 is reported as > 100 µM (inactive).
